Results published in US20110183911A1, “METHOD FOR IMPROVING NEUROTRANSMISSION FAILURE USING A NOVEL AGENT” (JURIDICAL FOUNDATION THE CHEMO-SERO-THERAPEUTIC RESEARCH …, priority 2002, published 2011).
Like-named read-outs stand apart in the source and are kept apart here.

Key:
[1] = Cell death-inhibitory activity of purified fractions; assay type: cell-based; conditions: fractions purified from plasma (Preparation 1)
[2] = tested on: acetylcholine receptors; assay: Pilocarpine-induced convulsion in mice (function of acetylcholine receptor); assay type: in vivo; conditions: ICR male mice
Procedure: In order to study the effect of Selenoprotein P on cholinergic neurons, to mice was administered pilocarpine that agonistically acted on acetylcholine receptors present on junctions (synaptic terminal) between neurons and between neurons and muscle to thereby induce convulsion. Pilocarpine, having a parasympathetic nerve-stimulating activity, will induce clonic convulsion in the limbs leading to systemic convulsion when administered to mice.
Twelve ICR male mice (weighing 30 to 43 g; purchased from CLEA Japan, Inc.) of nine weeks old were divided into two groups (6 animals/group) and tested. One hour before administration of pilocarpine, Selenoprotein P prepared at a concentration of 2.5 mg/mL with saline was administered to mice at 0.5 mg of Selenoprotein P per animal (200 μL) as a test group. For a control group, an equivalent amount of saline was administered intraperitoneally. Pilocarpine (pilocarpine hydrochloride, Wako Pure Chemical Industries, Ltd.) was prepared at 100 mg/mL with saline and administered to mice intraperitoneally at 270 to 320 mg/kg. Immediately after administration, mice were photographed with a digital video for record of experiment. Observation was made for 60 minutes after administration of pilocarpine. Time required for developing systemic convulsion and survival of the animals were taken for criteria of assessment. […]

[3] = tested on: NG108-15 cells; assay: Activity to accelerate synaptic formation: differentiation of NG108-15 cells, anti-Rab3a immunostaining; assay type: cell-based, rat; conditions: Selenoprotein P 4.36 μg/mL
Procedure: In order to study the effect of Selenoprotein P on synaptic formation, differentiation to neurons was examined using NG108-15 cells (hybridoma of rat neuroblastoma and rat glioma: ATCC NO. HB-12317) which has widely been used for study of synaptic formation and a receptor. NK108-15 cells were seeded to DME supplemented with 10% fetal calf serum and HAT (hypoxanthine, aminopterin and thymidine) in 35 mm polyornithine-coated dish and incubated at 37° C., 10% CO2. After 1 to 2 days, the culture medium was replaced with DMEM (serum free medium) supplemented with 1% fetal calf serum and HT (hypoxanthine and thymidine) and 0.1 mM dibutyl cyclic AMP (abcAMP) was added to induce differentiation while Selenoprotein P at 4.36 μg/mL was added to the medium followed by culture for 3 days. After culture, the dish attached with a sheet of cells was rinsed twice with phosphate buffered saline (hereinafter referred to as PBS) to wash the culture. Cellular proteins were then fixed with paraformaldehyde adjusted to 4% with PBS. After fixation at room temperature for 30 minutes, the dish was rinsed twice with PBS to remove a fixing solution. […]
The nerve cell bodies had also a number of short neurites. […] A proportion of synapses specifically dyed with the anti-Rab3a antibody was then calculated with Mac SCOPE (manufactured by Mitani Corporation), a software for image analysis for Mackintosh, to measure immunopositive spots. […] Therefore, those spots with R value alone could be extracted with the analysis software and measured. In addition, the number of varicosity with no immunological reaction was measured manually and then a proportion (%) of the number of immunopositive varicosity among a total number of varicosity in the photographed picture was calculated.

[4] = tested on: cell culture
[5] = tested on: cultured primary neurons; assay: Activation of primary neurons by NO (SNAP): mitochondrial dehydrogenase activity, Cell Counting kit-8; assay type: cell-based; conditions: mouse primary neurons, 15 hours, fragment 0.26 μM as selenium (FIG. 3)
Source text: In order to study the effect of Selenoprotein P on the neurotic activity of NO as synaptic neurotransmitter, cultured primary neurons were subject to the action of an NO generator, S-nitroso-N-acetyl-DL-penicillamine (SNAP, manufactured by DOJINDO LABORATORIES), in the presence of Selenoprotein P to determine as to whether a respiratory capacity of neuronal mitochondria is altered in the presence of Selenoprotein P. For determination of a respiratory capacity of mitochondria, a kit was used that readily measured the dehydrogenase activity in the mitochondrial inner membrane (Cell Counting kit-8, manufactured by DOJINDO LABORATORIES).
Fetus was removed from C57BL/6 mouse of 14-day pregnancy (purchased from Charles River Japan, Inc.). The cerebral cortex from the fetus was treated and dispersed with 0.25% trypsinized EDAT and then cultured in Neurobasal Medium (Gibco BRL.) supplemented with B27 supplement (Gibco ERL.) in 5% CO2 incubator at 37° C. for culture of primary neurons. […] After developing reaction, each 100 μL of the culture supernatant was transferred to a 96-well microtiter plate and then absorption was measured at a wave-length of 450 nm with a microtiter plate reader with a reference wave-length of 650 nm.

[6] = tested on: cell culture; assay: Toxicity when added to cell culture

| Compound | Cell death-inhibitory activity per proteins [1] | Time for developing systemic convulsion compared to control group ([2]; 0.5 mg Selenoprotein P per animal 1 hour before pilocarpine) | Mortality after challenge with pilocarpine compared to control group (FIG. 2) ([2]; 0.5 mg Selenoprotein P per animal, observation 60 minutes) | Morphology of differentiated cells (neurites, varicosity) ([3]; 3 days) | Rab3a-dyed particles on neurites (FIG. 1) ([3]; 3 days, anti-Rab3a monoclonal antibody) | Proportion of Rab3a-immunopositive cells ± SD ([3]; differentiation with dibutyl cyclic AMP, culture for 3 days, immunopositive varicosity among total varicosity) | Toxicity [4] | Mitochondrial respiratory capacity of the neurons in the presence of NO generator SNAP ([5]; SNAP 50 μM, Selenoprotein P or sodium selenite 1 μM) | Activity of dehydrogenase of the mitochondrial inner membrane (mitochondrial respiratory capacity), without SNAP ([5]; no SNAP, Selenoprotein P 1 μM) | Toxicity [6] |
| --- | --- | --- | --- | --- | --- | --- | --- | --- | --- | --- |
| Selenoprotein P: selenocysteine-containing plasma protein (SEQ ID NO: 1), full-length 64 kDa, purified from human plasma (Preparation 2) | much lower than that of the fragment thereof | significantly shortened | apparently decreased mortality | complexity in development of neurites as well as much particulate varicosity | a large number of Rab3a-dyed knotty particles on neurites | 66.0 ± 2.75% | no such a high toxicity could be observed | significantly increased | tended to show an increased activity |  |
| N[C@@H](C[Se][Se]C[C@H](N)C(=O)O)C(=O)O [selenocystine] |  |  |  |  |  |  |  |  |  | considerably high toxicity |
